What was measured:
hERG = biological target: T1, hERG (Homo sapiens, UniProt Q12809); experiment: Patchliner automated patch clamp of hERG currents in HEK cells, two-point screening (Example 2); format: cell-based; conditions: for Normalized Block of hERG current: steady state at end of application
T1 construct: expressed in transfected cells; host or cells: HEK cells stably expressing hERG
Method: To determine binding to Kv1.3, Jurkat cells endogenously expressing Kv1.3 were used. For binding to hERG, HEK cells stably expressing hERG were used.
Cell culture was performed using standard cell culture techniques. In brief, cells were grown on 10 cm culture dishes or T75 culture flasks in DMEM-based media. With a confluence of about 60-80%, cells were split every 2-3 days. For recordings on the Patchliner (Nanion), Jurkat cells were resuspended and then spinned in a centrifuge. Before spinning, HEK cells were treated with Trypsin, to detach them from the dish surface. After spinning, cells were resuspended in external recording buffer to a density of approximately 1-2 million cells per ml.
Internal recording solution: 50 mM KCl • 10 mM NaCl • 60 mM KF • 20 mM EGTA • 10 mM HEPES/KOH, pH 7.2, (Osm: ˜290 mOsm)
5 mM Mg-ATP and 0.3 mM Na-GTP were added fresh to the internal solution and pH adjusted to 7.2.
External recording buffer: 140 mM NaCl • 4 mM KCl • 1 mM MgCl2 • 2 mM CaCl2 • 5 mM D-Glucose monohydrate • 10 mM HEPES/NaOH pH 7.4, (Osm: ˜298 mOsm) Compounds
Electrophysiological recordings were performed with a Patchliner, recording up to 8 channels, simultaneously. The Patchliner is an automated patch clamp system utilizing borosilicate glass chips (NPC-16) for planar patch clamp, and operating via the PatchControlHT software. NPC-16 chips with a resistance of 3-5 MΩ for Jurkat cells and 2-3 MΩ for HEK cells were used for recordings. During recordings, cells were kept in a “cell hotel” where they were periodically pipetted up and down to maintain viability. […]
For pharmacology on hERG, peak amplitude at the 2nd −40 mV step (tail current) was calculated using online analysis functions in PatchMaster. The leak (calculated from the 1st step to −40 mV) was subtracted from this peak to calculate the true peak and these could be plotted as a function of time.
Values were exported to Excel to calculate concentration response curves in Igor. […] A Hill equation was fitted to estimate the IC50 for each compound and IC50 was calculated relative to maximum block. […]

Kv1.3 = Kv1.3 (Homo sapiens, UniProt P22001); experiment: Kv1.3 block with prolonged incubation times; format: cell-based
[1] = biological target: T2, Kv1.3 channels expressed in Sf21 insect cells (Homo sapiens, UniProt P22001); experiment: Stability ex vivo in human blood plasma, read out as IC50 on Kv1.3 (Example 3); format: in vitro ADME
T2 construct: expressed in transfected cells; host or cells: Sf21 insect cells, baculovirus infection
Method: (§1) The aim was to test the stability of the cgtx-544 peptide in blood plasma of mammals after different incubation times at room temperature (RT) and 37° C. Stability was defined as IC50 value of cgtx-544 after different incubation times at RT and 37° C. Blood plasma was prepared from fresh blood samples from healthy rats or humans. Heparin was added to fresh blood samples to prevent clogging. Plasma preparation was performed by centrifugation for 2 min at 2000×g at RT.
(§2) As the cgtx-544 peptide used in these experiments was incompletely folded, a higher IC50 than normal was determined.
(§3) To investigate the stability and activity in plasma the peptide was added to freshly prepared human and rat blood plasma at a final concentration of 2 μM. The samples were split into two aliquots and incubated at 37° C. and at room temperature (RT, 20° C.). For the electrophysiological analysis serial dilutions of the samples were prepared.

[2] = biological target: T2, Kv1.3 channels expressed in Sf21 insect cells; experiment: Stability ex vivo in rat blood plasma, read out as IC50 on Kv1.3 (Example 3); format: in vitro ADME
Method: as §1, §2, §3

[3] = biological target: T3, Kv1.3 channels endogenously expressed in TEM cells (Homo sapiens, UniProt P22001); experiment: Block of Kv1.3 currents in isolated human TEM cells (Example 4); format: cell-based; conditions: incompletely folded peptide
T3 construct: endogenously expressed Kv1.3 channels in TEM cells; endogenous in cells
From the text: The insect cell line Spodoptera frugiperda (Sf21) was used in combination with a Baculovirus infection system for the heterologous expression of recombinant ion channels. Sf21 cells offer highly specific protein expression and correct posttranslational modifications resulting in functional channels with proposed comparability of electrophysiological parameters of ion channels in vivo. Therefore, it was necessary to compare the electrophysiological properties of the potassium selective ion channel Kv1.3 expressed in Sf21 cells and endogenously expressed Kv1.3 channels in TEM cells.
For the comparison of characteristic voltage dependent Kv1.3 channel activation a typical voltage protocol from −60 mV to +60 mV in 20 mV steps (activation pulse 200 ms) was used. Cells were clamped at a holding potential of −100 mV.
The maximal observed current, which clearly originates from Kv1.3 activity, and the applied voltage allows to assess the total conductivity of all Kv1.3 channels. Accordingly, the number of channels can be extracted using the known conductivity of a single Kv1.3 channel. […] By variation of the infection conditions, it is possible to control the expression level of Kv1.3 in Sf21 cells, according to the needs of the investigation. Under our standard conditions a maximal current of 2-5 nA, a conductance of 33-50 nS and a number of 2500-3800 channels per cell can be estimated. […]

[4] = read-out: IC50 on Kv1.3 after incubation in plasma, 48 h at 37° C.
[5] = read-out: IC50 on Kv1.3 in plasma, time point 0 h

T2 sequence (P22001 whole entry): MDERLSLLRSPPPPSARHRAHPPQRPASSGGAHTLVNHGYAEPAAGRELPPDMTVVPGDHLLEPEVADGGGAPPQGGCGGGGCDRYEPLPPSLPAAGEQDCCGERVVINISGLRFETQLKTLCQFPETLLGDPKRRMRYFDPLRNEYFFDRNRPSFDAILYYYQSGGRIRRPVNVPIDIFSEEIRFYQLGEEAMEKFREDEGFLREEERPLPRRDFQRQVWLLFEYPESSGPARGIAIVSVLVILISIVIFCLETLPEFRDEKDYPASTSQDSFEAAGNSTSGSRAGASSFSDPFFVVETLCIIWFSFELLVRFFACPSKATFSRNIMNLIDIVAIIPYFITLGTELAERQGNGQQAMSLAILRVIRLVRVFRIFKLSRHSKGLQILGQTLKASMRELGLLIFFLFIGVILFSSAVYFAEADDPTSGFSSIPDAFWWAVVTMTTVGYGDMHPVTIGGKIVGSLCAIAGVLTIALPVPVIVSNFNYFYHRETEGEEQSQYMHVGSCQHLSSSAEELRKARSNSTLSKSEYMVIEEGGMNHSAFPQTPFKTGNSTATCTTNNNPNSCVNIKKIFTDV
T1 sequence (Q12809 whole entry): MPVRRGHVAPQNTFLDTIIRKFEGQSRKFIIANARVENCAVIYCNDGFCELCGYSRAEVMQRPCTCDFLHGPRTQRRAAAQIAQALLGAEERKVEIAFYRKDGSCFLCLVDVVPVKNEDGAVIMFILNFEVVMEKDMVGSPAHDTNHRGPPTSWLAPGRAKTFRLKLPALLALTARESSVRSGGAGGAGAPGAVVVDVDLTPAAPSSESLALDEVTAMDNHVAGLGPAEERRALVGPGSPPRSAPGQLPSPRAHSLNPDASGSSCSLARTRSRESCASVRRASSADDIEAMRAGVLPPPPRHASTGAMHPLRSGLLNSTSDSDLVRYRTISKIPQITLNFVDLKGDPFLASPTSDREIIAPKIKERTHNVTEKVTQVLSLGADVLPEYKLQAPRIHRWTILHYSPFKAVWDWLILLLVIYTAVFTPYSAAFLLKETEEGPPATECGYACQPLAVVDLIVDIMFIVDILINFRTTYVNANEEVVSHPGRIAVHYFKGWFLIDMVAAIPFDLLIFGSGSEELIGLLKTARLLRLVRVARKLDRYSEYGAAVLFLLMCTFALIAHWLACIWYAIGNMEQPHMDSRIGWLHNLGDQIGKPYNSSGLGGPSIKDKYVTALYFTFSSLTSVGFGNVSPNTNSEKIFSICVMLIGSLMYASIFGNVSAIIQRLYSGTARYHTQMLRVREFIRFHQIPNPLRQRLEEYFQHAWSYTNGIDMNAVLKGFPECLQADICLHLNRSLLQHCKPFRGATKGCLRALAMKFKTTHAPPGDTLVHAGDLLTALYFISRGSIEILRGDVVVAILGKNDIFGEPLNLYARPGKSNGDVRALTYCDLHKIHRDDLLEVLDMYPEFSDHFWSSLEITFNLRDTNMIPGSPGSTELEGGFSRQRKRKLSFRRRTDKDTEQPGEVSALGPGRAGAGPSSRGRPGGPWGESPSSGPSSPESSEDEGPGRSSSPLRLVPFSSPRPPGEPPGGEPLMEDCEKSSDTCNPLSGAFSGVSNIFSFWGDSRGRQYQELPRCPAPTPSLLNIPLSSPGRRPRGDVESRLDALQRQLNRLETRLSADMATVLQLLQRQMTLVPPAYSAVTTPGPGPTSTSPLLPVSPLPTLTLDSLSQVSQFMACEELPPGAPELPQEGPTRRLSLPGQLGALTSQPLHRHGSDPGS
Chain of Kv1.3 (P22001 whole entry): as the sequence (P22001 whole entry) above
T3 sequence (P22001 whole entry): as above

CC[C@H](C)[C@H](NC(=O)[C@@H](N)[C@@H](C)O)C(=O)N[C@H](C(=O)N[C@@H](CC(N)=O)C(=O)N[C@H](C(=O)N[C@@H](CCCCN)C(=O)N[C@H]1CSSC[C@@H]2NC(=O)[C@H](CCCCN)NC(=O)CNC(=O)[C@H](Cc3ccc(O)cc3)NC(=O)[C@@H]3CCCN3C(=O)[C@@H]3CSSC[C@@H](C(=O)O)NC(=O)[C@H](CCCNC(=N)N)NC(=O)[C@H](CC(N)=O)NC(=O)[C@@H]4CSSC[C@H](NC(=O)[C@@H]5CCCN5C(=O)[C@@H]5CCCN5C(=O)[C@H](CC(C)C)NC(=O)[C@H](CSSC[C@H](NC(=O)[C@H](CCCCN)NC(=O)[C@H](CCCNC(=N)N)NC(=O)[C@H](CC(N)=O)NC(=O)[C@H](CCSC)NC2=O)C(=O)N[C@@H](CCCCN)C(=O)N4)NC(=O)[C@H](CCC(N)=O)NC(=O)[C@H](CCCCN)NC(=O)[C@@H]2CCCN2C(=O)[C@H](CO)NC(=O)[C@H]([C@@H](C)O)NC1=O)C(=O)N[C@@H](CCCCN)C(=O)N[C@@H](C)C(=O)N[C@@H](CCC(N)=O)C(=O)N[C@@H]([C@@H](C)O)C(=O)NCC(=O)N3)C(C)C)[C@@H](C)CC [Compound 7]
Normalized Block of hERG current (hERG; 5 μM): 0.04
Normalized Block of hERG current (hERG; 10 μM): 0.07
effect on hERG current (hERG; hERG expressing HEK cells): only low effects
block of Kv1.3 currents (Kv1.3; long incubation times, i.e. 15 min): 60%
block of Kv1.3 currents (Kv1.3; short incubation times): 20%
significant change in activity ([1]; 24 h, 37° C. and RT): could not be detected
activity after incubation in plasma ([1]; 48 h at RT): remained unchanged
activity after incubation in plasma ([1]; 14 days at 37° C.): no activity was detected
activity after incubation in plasma ([1]; 14 days at RT): unchanged activity
IC50 [1, 4]: 37.3 nM
IC50 [1, 5]: 20.9 nM
significant change in activity ([2]; 24 h, 37° C. and RT): could not be detected
activity after incubation in plasma ([2]; 48 h at RT): remained unchanged
activity after incubation in plasma ([2]; 14 days at 37° C.): no activity was detected
activity after incubation in plasma ([2]; 14 days at RT): unchanged activity
IC50 [2, 4]: 57.8 nM
IC50 [2, 5]: 15 nM
Kv1.3 block on human TEM cells compared with Kv1.3 transfected Sf21 cells [3]: the same values

— patent publication US10800815B2, “Kv1.3 potassium channel antagonists” (cgtx-Peptide Development GmbH, priority 2014, dated 2020)
